Values of other authors as cited in patent US20230405112A1, “PHARMACEUTICAL COMPOSITION, PHARMACEUTICAL COMBINED FORMULATION, AND COMBINED FORMULATION KIT FOR PREVENTION OR TREATMENT OF CHRONIC HEPATITIS B, EACH COMPRISING, AS ACTIVE INGREDIENT, ORAL ANTIVIRAL AGENT AND THERAPEUTIC VACCINE INCLUDING LIPOPEPTIDE AND POLY(I:C) ADJUVANT” (CHA VACCINE RESEARCH INSTITUTE CO., LTD, priority 2020, published 2023).
Several values for one entry are separate records, joined by “and”; a condition that tells them apart may be missing. Equal values may be shown once. Where a name gives a salt, the structure may show the parent alone. Read-outs that look alike come from different tables or passages of the source.

Assays:
[1] = test system: hepatitis B virus; conditions: after 1 year of treatment
[2] = test system: hepatitis B virus
[3] = test system: hepatitis B virus; conditions: Chinese patients; 7 years
[4] = test system: hepatitis B virus; remark: listed apart in the source
[5] = test system: hepatitis B virus; remark: listed apart in the source
[6] = test system: virus-specific cytotoxic T lymphocytes (CTLs); conditions: combined with an influenza virus T cell epitope; administered to mice
[7] = HBeAg(+), phase 3, 2 year results
[8] = baseline HBeAg(+), 1 year (week 48)
[9] = baseline HBeAg(+), 2 years (week 96)
[10] = baseline HBeAg(−), 1 year (week 48)
[11] = baseline HBeAg(−), 2 years (week 96)
[12] = HBeAg(+), 3-year follow-up, (non-Asian)
[13] = HBeAg(+), phase 3, 1 year, (non-Asian)
[14] = all patients, 10-year follow-up

Compound: CC(C)(C)C(=O)OCOP(=O)(COCCn1cnc2c(N)ncnc21)OCOC(=O)C(C)(C)C [ADV, Adefovirdipivoxil]
- ALT nomalisatioin ([1]; HBeAg(+) patients): 48~54%
- Anti-Hbe-seroconversion ([1]; HBeAg(+) patients): 12~18%
- HBV DNA <60~80 IU/ml ([1]; HBeAg(+) patients): 13~21%
- HBs Ag loss ([1]; HBeAg(+) patients): 0%
- ALT nomalisatioin ([1]; HBeAg(−) patients): 72~77%
- HBV DNA <60~80 IU/ml ([1]; HBeAg(−) patients): 51~63%
- HBs Ag loss ([1]; HBeAg(−) patients): 0%

Compound: C=C1[C@H](CO)[C@@H](O)C[C@@H]1n1cnc2c(=O)[nH]c(N)nc21 [Entecavir]
- ALT nomalisatioin ([1]; HBeAg(+) patients): 68%
- Anti-Hbe-seroconversion ([1]; HBeAg(+) patients): 21%
- HBV DNA <60~80 IU/ml ([1]; HBeAg(+) patients): 67%
- HBs Ag loss ([1]; HBeAg(+) patients): 2%
- ALT nomalisatioin ([1]; HBeAg(−) patients): 78%
- HBV DNA <60~80 IU/ml ([1]; HBeAg(−) patients): 90%
- HBs Ag loss ([1]; HBeAg(−) patients): 0%
- HBeAg seroconversion (%) ([2]; 5 year results): 23%
- HBeAg seroconversion n/N ([2]; 5 year results): 33/141
- HBsAg loss (%) ([2]; HBeAg(+), 5 year results): 1.4%
- HBsAg loss n/N ([2]; HBeAg(+), 5 year results): 2/145
- HBsAg loss (%) [2, 7]: 5%
- HBsAg loss n/N [2, 7]: 18/354
- HBsAg seroconversion (%) [2, 7]: 2%
- HBsAg seroconversion n/N [2, 7]: 6/354
- HBeAg seroconversion (%) ([2]; phase 3, 2 year results): 31%
- HBeAg seroconversion n/N ([2]; phase 3, 2 year results): 110/354
- HBeAg seroconversion rate (Kaplan-meier analysis) [3]: 82.1%
- HBsAg loss (%) [3]: 2.5%
- HBsAg loss, patients [3]: 4 of 160

Compound: Nc1ccn([C@@H]2CS[C@H](CO)O2)c(=O)n1 [LAM, Lamivudine]
- ALT nomalisatioin ([1]; HBeAg(+) patients): 41~72%
- Anti-Hbe-seroconversion ([1]; HBeAg(+) patients): 16~18%
- HBV DNA <60~80 IU/ml ([1]; HBeAg(+) patients): 36~44%
- HBs Ag loss ([1]; HBeAg(+) patients): 0~1%
- ALT nomalisatioin ([1]; HBeAg(−) patients): 71~79%
- HBV DNA <60~80 IU/ml ([1]; HBeAg(−) patients): 72~73%
- HBs Ag loss ([1]; HBeAg(−) patients): 0%

Compound: CC(C)OC(=O)[C@H](C)N[P@](=O)(CO[C@H](C)Cn1cnc2c(N)ncnc21)Oc1ccccc1 [TAF, Tenofoviralafenamide fumarate]
- ALT nomalisatioin ([1]; HBeAg(+) patients): 72%
- Anti-Hbe-seroconversion ([1]; HBeAg(+) patients): 10%
- HBV DNA <60~80 IU/ml ([1]; HBeAg(+) patients): 64%
- HBs Ag loss ([1]; HBeAg(+) patients): 1%
- ALT nomalisatioin ([1]; HBeAg(−) patients): 83%
- HBV DNA <60~80 IU/ml ([1]; HBeAg(−) patients): 94%
- HBs Ag loss ([1]; HBeAg(−) patients): 0%
- HBeAg loss (%) ([4]; Total, 1 year (week 48)): (14%)
- HBeAg loss n/N ([4]; Total, 1 year (week 48)): 78/565
- HBsAg loss n/N ([4]; Total, 1 year (week 48)): 4/861
- HBeAg loss (%) ([4]; Total, 2 years (week 96)): (22%)
- HBeAg loss n/N ([4]; Total, 2 years (week 96)): 123/565
- HBsAg loss (%) ([4]; Total, 2 years (week 96)): (<1%)
- HBsAg loss n/N ([4]; Total, 2 years (week 96)): 8/861
- HBeAg seroconversion (%) ([4]; baseline HBeAg(+), 1 year): (10%)
- HBeAg seroconversion n/N ([4]; baseline HBeAg(+), 1 year): 58/565
- HBsAg seroconversion (%) ([4]; baseline HBeAg(+), 1 year): (1%)
- HBsAg seroconversion n/N ([4]; baseline HBeAg(+), 1 year): 3/576
- HBeAg loss n/N [4, 8]: 78/565
- HBsAg loss n/N [4, 8]: 4/576
- HBeAg seroconversion (%) ([4]; baseline HBeAg(+), 2 years): (18%)
- HBeAg seroconversion n/N ([4]; baseline HBeAg(+), 2 years): 99/565
- HBsAg seroconversion (%) ([4]; baseline HBeAg(+), 2 years): (1%)
- HBsAg seroconversion n/N ([4]; baseline HBeAg(+), 2 years): 6/576
- Average reduction of HBsAg [4, 9]: −0.51 log10IU/ml
- HBeAg loss n/N [4, 9]: 123/565
- HBsAg loss n/N [4, 9]: 7/576
- HBsAg seroconversion n/N ([4]; baseline HBeAg(−), 1 year): 0
- HBsAg loss n/N [4, 10]: 0
- HBsAg seroconversion (%) ([4]; baseline HBeAg(−), 2 years): (<1%)
- HBsAg seroconversion n/N ([4]; baseline HBeAg(−), 2 years): 1/281
- Average reduction of HBsAg [4, 11]: −0.14 log10IU/ml
- HBsAg loss (%) [4, 11]: (<1%)
- HBsAg loss n/N [4, 11]: 1/281

Compound: Cc1cn([C@@H]2C[C@@H](O)[C@H](CO)O2)c(=O)[nH]c1=O [TBV, Telbivudine]
- ALT nomalisatioin ([1]; HBeAg(+) patients): 77%
- Anti-Hbe-seroconversion ([1]; HBeAg(+) patients): 22%
- HBV DNA <60~80 IU/ml ([1]; HBeAg(+) patients): 60%
- HBs Ag loss ([1]; HBeAg(+) patients): 0.5%
- ALT nomalisatioin ([1]; HBeAg(−) patients): 74%
- HBV DNA <60~80 IU/ml ([1]; HBeAg(−) patients): 88%
- HBs Ag loss ([1]; HBeAg(−) patients): 0%

Compound: CC(C)OC(=O)OCOP(=O)(CO[C@H](C)Cn1cnc2c(N)ncnc21)OCOC(=O)OC(C)C [TDF, Tenofovirdisoproxil fumarate]
- ALT nomalisatioin ([1]; HBeAg(+) patients): 68%
- Anti-Hbe-seroconversion ([1]; HBeAg(+) patients): 21%
- HBV DNA <60~80 IU/ml ([1]; HBeAg(+) patients): 76%
- HBs Ag loss ([1]; HBeAg(+) patients): 3%
- ALT nomalisatioin ([1]; HBeAg(−) patients): 76%
- HBV DNA <60~80 IU/ml ([1]; HBeAg(−) patients): 93%
- HBs Ag loss ([1]; HBeAg(−) patients): 0%
- HBeAg loss (%) ([4]; Total, 1 year (week 48)): (12%)
- HBeAg loss n/N ([4]; Total, 1 year (week 48)): 34/285
- HBsAg loss (%) ([4]; Total, 1 year (week 48)): (<1%)
- HBsAg loss n/N ([4]; Total, 1 year (week 48)): 1 out of 428 and 1/428
- HBeAg loss (%) ([4]; Total, 2 years (week 96)): (18%)
- HBeAg loss n/N ([4]; Total, 2 years (week 96)): 51/285
- HBsAg loss (%) ([4]; Total, 2 years (week 96)): (<1%)
- HBsAg loss n/N ([4]; Total, 2 years (week 96)): 4/428
- HBeAg seroconversion (%) ([4]; baseline HBeAg(+), 1 year): (8%)
- HBeAg seroconversion n/N ([4]; baseline HBeAg(+), 1 year): 23/285
- HBsAg seroconversion n/N ([4]; baseline HBeAg(+), 1 year): 0
- HBeAg loss n/N [4, 8]: 34/285
- HBsAg loss n/N [4, 8]: 1/288
- HBeAg seroconversion (%) ([4]; baseline HBeAg(+), 2 years): (12%)
- HBeAg seroconversion n/N ([4]; baseline HBeAg(+), 2 years): 35/285
- HBsAg seroconversion n/N ([4]; baseline HBeAg(+), 2 years): 0
- Average reduction of HBsAg [4, 9]: −0.64 log10IU/ml
- HBeAg loss n/N [4, 9]: 51/285
- HBsAg loss n/N [4, 9]: 4/288
- HBsAg seroconversion n/N ([4]; baseline HBeAg(−), 1 year): 0
- HBsAg loss n/N [4, 10]: 0
- HBsAg seroconversion n/N ([4]; baseline HBeAg(−), 2 years): 0
- Average reduction of HBsAg [4, 11]: −0.10 log10IU/ml
- HBsAg loss n/N [4, 11]: 0
- HBeAg loss (%) ([5]; HBeAg(+), 3-year follow-up): 34%
- HBeAg seroconversion (%) ([5]; HBeAg(+), 3-year follow-up): 26%
- HBsAg loss (%) [kaplan-meier] [5, 12]: 8%
- HBsAg seroconversion (%) [kaplan-meier] [5, 12]: 6%
- HBsAg seroconversion, n patients [5, 12]: (n = 15)
- HBeAg loss n/N ([5]; HBeAg(+), 7-year follow-up): 84/154
- HBeAg seroconversion n/N ([5]; HBeAg(+), 7-year follow-up): 61/154
- HBsAg loss (%) [kaplan-meier] ([5]; HBeAg(+), 7-year follow-up): 11.8%
- HBsAg loss, n patients ([5]; HBeAg(+), 7-year follow-up): (n = 27)
- HBsAg seroconversion (%) [kaplan-meier] ([5]; HBeAg(+), 7-year follow-up): 9.7%
- HBsAg seroconversion, n patients ([5]; HBeAg(+), 7-year follow-up): (n = 21)
- HBeAg loss n/N ([5]; HBeAg(+), 10-year follow-up): 12/23
- HBeAg seroconversion n/N ([5]; HBeAg(+), 10-year follow-up): 6/22
- HBsAg loss n/N ([5]; HBeAg(+), 10-year follow-up, (non-Asian)): 4/81
- HBeAg seroconversion n/N ([5]; HBeAg(+), phase 3, 1 year): 32/153
- HBsAg loss n/N [5, 13]: 5/158
- HBsAg seroconversion n/N [5, 13]: 2/158
- HBsAg loss n/N ([5]; HBeAg(−), 3-year follow-up): 0
- HBsAg seroconversion n/N ([5]; HBeAg(−), 3-year follow-up): 0
- HBsAg seroconversion n/N ([5]; HBeAg(−), 7-year follow-up): 0
- HBsAg loss n/N ([5]; HBeAg(−), 10-year follow-up, (non-Asian)): 4/117
- HBsAg loss n/N ([5]; HBeAg(−), phase 3, 1 year): 0
- HBsAg seroconversion n/N ([5]; HBeAg(−), phase 3, 1 year): 0
- HBsAg loss (%) [5, 14]: 4.0%
- HBsAg loss n/N [5, 14]: 8/198
- HBsAg loss, number of patients ([5]; all patients, over 7 years): 28
- change of HBsAg levels ([5]; patients first receiving oral antiviral agent, after 2 years (96 weeks), FIG. 1): no significant change

Compound: Pam3Cys-Ser-Ser
- virus-specific cytotoxic T lymphocytes (CTLs) [6]: induced
